# Source: patent publication US20190352276A1, “INHIBITORS OF BRUTON'S TYROSINE KINASE” (Joint Stock Company "Biocad", priority 2016, published 2019)
# Experiment: Chemical stability in artificial gastric fluid (SGF without enzymes); also: time not given here
# Settings: 10 μM in SGF without enzymes, pH=1.4, 37° C.
row,SMILES,Amount of substance in the sample in % (chemical stability) [%]
1,"C=CC(=O)N1CCC[C@@H](n2nc(-c3ccc(Oc4ccncc4C#N)cc3)c3cncc(C#N)c32)C1 [BCD-BTK -213, (R)-1-(1-acryloylpiperidin-3-yl)-3-(4-(3-cyanopyridin-4-yloxy)phenyl)-1H-pyrazolo[4,3-c]pyridine-7-carbonitrile]",97.4
2,"C=CC(=O)N1CCC[C@@H](n2nc(-c3ccc(-n4ccc(=O)c(C#N)c4)cc3)c3cncc(Cl)c32)C1 [BCD-BTK -208, (R)-1-(4-(1-(1-acryloylpiperidin-3-yl)-7-chloro-1H-pyrazolo[4,3-c]pyridin-3-yl)phenyl)-4-oxo-1,4-dihydropyridine-3-carbonitrile]",100
3,"C=CC(=O)N1CCC[C@@H](n2nc(-c3ccc(Oc4ccncc4)cc3)c3cncc(F)c32)C1 [BCD-BTK -211, (R)-1-(3-(7-fluoro-3-(4-(pyridin-4-yloxy)phenyl)-1H-pyrazolo[4,3-c]pyridin-1-yl)piperidin-1-yl)prop-2-en-1-one]",100
4,"C=CC(=O)N1CCC[C@@H](n2nc(-c3ccc(C(=O)Nc4cc(C(F)(F)F)ccn4)cc3)c3cncc(Cl)c32)C1 [BCD-BTK -210, (R)-4-(1-(1-acryloylpiperidin-3-yl)-7-chloro-1H-pyrazolo[4,3-c]pyridin-3-yl)-N-(4-(trifluoromethyl)pyridin-2-yl)benzamide]",96.1
5,"C=CC(=O)N1CCC[C@@H](n2nc(-c3ccc(Oc4cccnc4C#N)cc3)c3cncc(C#N)c32)C1 [BCD-BTK -216, (R)-1-(1-acryloylpiperidin-3-yl)-3-(4-(2-cyanopyridin-3-yloxy)phenyl)-1H-pyrazolo[4,3-c]pyridine-7-carbonitrile]",96.3
6,"C=CC(=O)N1CCC[C@@H](n2nc(-c3ccc(-n4ccc(=O)cc4)c(F)c3)c3cncc(Cl)c32)C1 [BCD-BTK -205, (R)-1-(4-(1-(1-acryloylpiperidin-3-yl)-7-chloro-1H-pyrazolo[4,3-c]pyridin-3-yl)-2-fluorophenyl)pyridin-4(1H)-one]",100
7,"C=CC(=O)N1CCC[C@@H](n2nc(-c3ccc(Oc4ccncc4)cc3)c3cncc(Cl)c32)C1 [BCD-BTK - 125, (R)-1-(1-acryloylpiperidin-3-yl)-7-chloro-3-(4-(pyridin-4-yloxy)phenyl)-1H-pyrazolo[4,3-c]pyridine]",100
8,"C=CC(=O)N1CCC[C@@H](n2nc(-c3cnc(-n4ccc(=O)c(C(N)=O)c4)nc3)c3cncc(Cl)c32)C1 [BCD-BTK -207, (R)-1-(5-(1-(1-acryloylpiperidin-3-yl)-7-chloro-1H-pyrazolo[4,3-c]pyridin-3-yl)pyrimidin-2-yl)-4-oxo-1,4-dihydropyridine-3-carboxamide]",100
9,"C=CC(=O)N1CCC[C@@H](n2nc(-c3ccc(Oc4ccncc4)cc3)c3c(N)ncc(Cl)c32)C1 [BCD-BTK - 139, (R)-1-(1-acryloylpiperidin-3-yl)-7-chloro-3-(4-(pyridin-4-yloxy)phenyl)-1H-pyrazolo[4,3-c]pyridin-4-amine]",100
10,"C=CC(=O)N1CCC[C@@H](n2nc(-c3ccc(C(=O)Nc4cc(C(F)(F)CC)ccn4)cc3)c3cncc(F)c32)C1 [BCD-BTK -214, (R)-4-(1-(1-acryloylpiperidin-3-yl)-7-fluoro-1H-pyrazolo[4,3-c]pyridin-3-yl)-N-(4-(1,1-difluoropropyl)pyridin-2-yl)benzamide]",100
11,"C=CC(=O)N1CCC[C@@H](n2nc(-c3ccc(Oc4ccncc4C#N)cc3)c3cncc(Cl)c32)C1 [BCD-BTK -202, (R)-4-(4-(1-(1-acryloylpiperidin-3-yl)-7-chloro-1H-pyrazolo[4,3-c]pyridin-3-yl)phenoxy)nicotinonitrile]",95.5
12,"C=CC(=O)N1CCC[C@@H](n2nc(-c3ccc(Oc4cccnc4C#N)cc3)c3cncc(Cl)c32)C1 [BCD-BTK -218, 3-(4-{7-chloro-1-[1-(prop-2-enoyl)piperidin-3-yl]-1H-pyrazolo[4,3-c]pyridin-3-yl}phenoxy)pyridine-2-carbonitrile]",96
13,"C=CC(=O)N1CCC[C@@H](n2nc(-c3ccc(C(=O)Nc4ccc(F)cn4)cc3)c3cncc(Cl)c32)C1 [BCD-BTK -212, (R)-4-(1-(1-acryloylpiperidin-3-yl)-7-chloro-1H-pyrazolo[4,3-c]pyridin-3-yl)-N-(5-fluoropyridin-2-yl)benzamide]",100
14,"C=CC(=O)N1CCC[C@@H](n2nc(-c3cnc(-n4ccc(=O)c(C#N)c4)nc3)c3cncc(Cl)c32)C1 [BCD-BTK -206, (R)-1-(5-(1-(1-acryloylpiperidin-3-yl)-7-chloro-1H-pyrazolo[4,3-c]pyridin-3-yl)pyrimidin-2-yl)-4-oxo-1,4-dihydropyridine-3-carbonitrile]",100
15,"C=CC(=O)N1CCC[C@@H](n2nc(-c3ccc(-n4ccc(=O)cc4)cc3F)c3cncc(Cl)c32)C1 [BCD-BTK -204, (R)-1-(4-(1-(1-acryloylpiperidin-3-yl)-7-chloro-1H-pyrazolo[4,3-c]pyridin-3-yl)-3-fluorophenyl)pyridin-4(1H)-one]",100

# Second part, the molecule after the results:
row,Amount of substance in the sample in % (chemical stability) [%],SMILES
1,100,"CC#CC(=O)N1CC[C@H](n2nc(-c3ccc(C(=O)Nc4ccccn4)cc3)c3cncc(Cl)c32)C1 [BCD-BTK-271, (S)-4-(1-(1-(but-2-ynoyl)pyrrolidin-3-yl)-7-chloro-1H-pyrazolo[4,3-c]pyridin-3-yl)-N-(pyridin-2-yl)benzamide]"
2,100,"CC#CC(=O)N1CC[C@@H](Cn2nc(-c3ccc(C(=O)Nc4ccccn4)cc3)c3cncc(Cl)c32)C1 [BCD-BTK - 286, (R)-4-(1-((1-(but-2-ynoyl)pyrrolidin-3-yl)methyl)-7-chloro-1H-pyrazolo[4,3-c]pyridin-3-yl)-N-(pyridin-2-yl)benzamide]"
3,94.4,"C=CC(=O)N1CCC[C@@H](n2nc(-c3ccc(C(=O)Nc4cc(C(F)(F)CCC)ccn4)cc3)c3cncc(Cl)c32)C1 [BCD-BTK - 252, (R)-4-(1-(1-acryloylpiperidin-3-yl)-7-chloro-1H-pyrazolo[4,3-c]pyridin-3-yl)-N-(4-(1,1-difluorobutyl)pyridin-2-yl)benzamide]"
4,100,"CC#CC(=O)N1CC(n2nc(-c3ccc(Oc4ccncc4)cc3)c3cncc(Cl)c32)C1 [BCD-BTK - 281, 1-(3-(7-chloro-3-(4-(pyridin-4-yloxy)phenyl)-1H-pyrazolo[4,3-c]pyridin-1-yl)azetidin-1-yl)but-2-yn-1-one]"
5,89.5,"CC#CC(=O)N1CCC[C@@H](n2nc(-c3ccc(C(=O)Nc4ccccn4)cc3)c3c(N)ncc(Cl)c32)C1 [BCD-BTK - 295, (R)-4-(4-amino-1-(1-(but-2-ynoyl)piperidin-3-yl)-7-chloro-1H-pyrazolo[4,3-c]pyridin-3-yl)-N-(pyridin-2-yl)benzamide]"
6,100,"C=CC(=O)N1CCC[C@@H](n2nc(-c3ccc(C(=O)Nc4ncccc4F)cc3)c3cncc(F)c32)C1 [BCD-BTK - 249, (R)-4-(1-(1-acryloylpiperidin-3-yl)-7-fluoro-1H-pyrazolo[4,3-c]pyridin-3-yl)-N-(3-fluoropyridin-2-yl)benzamide]"
7,100,"C=CC(=O)N1CCC[C@@H](n2nc(-c3ccc(C(=O)Nc4cccc(F)n4)cc3)c3cncc(Cl)c32)C1 [BCD-BTK-225, (R)-4-(1-(1-acryloylpiperidin-3-yl)-7-chloro-1H-pyrazolo[4,3-c]pyridin-3-yl)-N-(6-fluoropyridin-2-yl)benzamide]"
8,100,"CC#CC(=O)N1CC[C@@H](n2nc(-c3ccc(C(=O)Nc4ccccn4)cc3)c3cncc(Cl)c32)C1 [BCD-BTK-262, (R)-4-(1-(1-(but-2-ynoyl)pyrrolidin-3-yl)-7-chloro-1H-pyrazolo[4,3-c]pyridin-3-yl)-N-(pyridin-2-yl)benzamide]"
9,100,"C=CC(=O)N1CCC[C@@H](n2nc(-c3ccc(C(=O)Nc4cc(C(F)(F)F)ccn4)cc3)c3c(N)ncc(Cl)c32)C1 [BCD-BTK - 251, (R)-4-(1-(1-acryloylpiperidin-3-yl)-4-amino-7-chloro-1H-pyrazolo[4,3-c]pyridin-3-yl)-N-(4-(trifluoromethyl)pyridin-2-yl)benzamide]"
10,100,"C=CC(=O)N1CCC[C@@H](n2nc(-c3ccc(Oc4cccnc4C(N)=O)cc3)c3cncc(F)c32)C1 [BCD-BTK - 255, (R)-3-(4-(1-(1-acryloylpiperidin-3-yl)-7-fluoro-1H-pyrazolo[4,3-c]pyridin-3-yl)phenoxy)picolinamide]"
11,100,"C=CC(=O)N1CCC[C@@H](n2nc(-c3ccc(C(=O)Nc4cccc(F)n4)cc3)c3cncc(F)c32)C1 [BCD-BTK - 248, (R)-4-(1-(1-acryloylpiperidin-3-yl)-7-fluoro-1H-pyrazolo[4,3-c]pyridin-3-yl)-N-(6-fluoropyridin-2-yl)benzamide]"
12,100,"C=CC(=O)N1CCC[C@@H](n2nc(-c3ccc(C(=O)Nc4cc(C(F)(F)F)ccn4)cc3)c3cncc(F)c32)C1 [BCD-BTK-245, (R)-4-(1-(1-acryloylpiperidin-3-yl)-7-fluoro-1H-pyrazolo[4,3-c]pyridin-3-yl)-N-(4-(trifluoromethyl)pyridin-2-yl)benzamide]"
13,100,"C=CC(=O)N1CCC[C@@H](n2nc(-c3ccc(C(=O)Nc4cccc(F)n4)cc3)c3c(N)ncc(Cl)c32)C1 [BCD-BTK - 250, (R)-4-(1-(1-acryloylpiperidin-3-yl)-4-amino-7-chloro-1H-pyrazolo[4,3-c]pyridin-3-yl)-N-(6-fluoropyridin-2-yl)benzamide]"
14,100,"C=CC(=O)N1CC(n2nc(-c3ccc(Oc4ccncc4)cc3)c3cncc(Cl)c32)C1 [BCD-BTK - 282, 1-(3-(7-chloro-3-(4-(pyridin-4-yloxy)phenyl)-1H-pyrazolo[4,3-c]pyridin-1-yl)azetidin-1-yl)prop-2-en-1-one]"
